Common to all, as to assay type: functional
Assay [1] concerns Echinochloa crus-galli. The experiment in a line: Herbicidal activity against Echinochloa crus-galli (barnyard grass) assessed as inhibition of plant growth at 10 ug/mL by cup test.
Assay [2] deals with Echinochloa crus-galli. The experiment in a line: Herbicidal activity against Echinochloa crus-galli (barnyard grass) assessed as inhibition of plant growth at 93.75 g/ha applied as pre-emergence treatment.
Assay [3] relates to Echinochloa crus-galli. The experiment in a line: Herbicidal activity against Echinochloa crus-galli (barnyard grass) assessed as inhibition of plant growth at 187.5 g/ha applied as pre-emergence treatment. To be noted: for inhibition at 187.5 g/ha: Echinochloa crus-galli, pre-emergence.
Assay [4] has as its system Echinochloa crus-galli. Briefly: Herbicidal activity against Echinochloa crus-galli (barnyard grass) assessed as inhibition of plant growth at 750 g/ha applied as pre-emergence treatment. To be noted: Echinochloa crus-galli, pre-emergence.
For assay [5], the system named is Echinochloa crus-galli. The experiment in a line: Herbicidal activity against Echinochloa crus-galli (barnyard grass) assessed as inhibition of plant growth at 375 g/ha applied as pre-emergence treatment. To be noted: Echinochloa crus-galli, pre-emergence.
Assay [6] deals with Digitaria sanguinalis. The experiment in a line: Herbicidal activity against Digitaria sanguinalis (hairy crabgrass) assessed as inhibition of plant growth at 375 g/ha applied as pre-emergence treatment.
In assay [7] the test system is Digitaria sanguinalis. Briefly: Herbicidal activity against Digitaria sanguinalis (hairy crabgrass) assessed as inhibition of plant growth at 750 g/ha applied as pre-emergence treatment. The conditions noted are these: Digitaria sanguinalis, pre-emergence; tested as the Zn salt or complex.
The test system of assay [8] is Digitaria sanguinalis. The experiment in a line: Herbicidal activity against Digitaria sanguinalis (hairy crabgrass) assessed as inhibition of plant growth at 187.5 g/ha applied as pre-emergence treatment. To be noted: Digitaria sanguinalis, pre-emergence; tested as the Zn salt or complex.
Assay [9] concerns Digitaria sanguinalis. Briefly: Herbicidal activity against Digitaria sanguinalis (hairy crabgrass) assessed as inhibition of plant growth at 93.75 g/ha applied as pre-emergence treatment. The conditions noted are these: Digitaria sanguinalis, pre-emergence; tested as the Zn salt or complex.
The mark [10] stands for this setting: tested as the Zn salt or complex.

The results in this text go back to ChEMBL document CHEMBL3045542, “A quantitative structure-activity relationship study of herbicidal analogues of alpha-hydroxy-substituted 3-benzylidenepyrrolidene-2,4-diones” (2006).

For `Cc1cccc(/C(O)=C2\C(=O)CN(C(C)C)C2=O)c1`, in [1], the inhibition at 10 µg/mL amounted to 49%.

With `Cc1ccccc1/C(O)=C1\C(=O)CN(Cc2ccccc2)C1=O`, in assay [1], the inhibition at 10 µg/mL was determined as 15%.

Turning to `Cc1ccccc1/C(O)=C1\C(=O)CN(C(C)C)C1=O`, the inhibition at 10 µg/mL in [1] is 77%.

Regarding `CCOc1ccc(/C(O)=C2\C(=O)CN(C(C)CC)C2=O)c(OC)c1` (configuration not stated), the inhibition at 10 µg/mL in [1] turned out to be 68%.

`CN1CC(=O)/C(=C(/O)c2cccc(Oc3ccccc3)c2)C1=O`: the inhibition at 10 µg/mL in [1] came out at 53%.

For `CCOc1ccc(/C(O)=C2\C(=O)C(C)N(C(C)C)C2=O)c(OC)c1` (configuration not stated), the inhibition at 10 µg/mL in [1] worked out at 32%.

With `CCCOc1ccc(/C(O)=C2\C(=O)CN(C(C)C)C2=O)cc1`, the inhibition at 10 µg/mL in [1] came to 73%.

For `Cc1cccc(/C(O)=C2\C(=O)CN(Cc3ccccc3)C2=O)c1`, the inhibition at 10 µg/mL in assay [1] worked out at 12%.

`COc1ccc(/C(O)=C2\C(=O)CN(C3CC3)C2=O)cc1`: the inhibition at 10 µg/mL in assay [1] is 62%.

`O=C1CN(C2CC2)C(=O)/C1=C(\O)c1cccc(Oc2ccccc2)c1`: the inhibition at 10 µg/mL in assay [1] is 58%.

As to `Cc1cc(C)cc(/C(O)=C2\C(=O)CN(C(C)C)C2=O)c1`, the inhibition at 10 µg/mL in assay [1] worked out at 22%.

Turning to `Cc1ccc(/C(O)=C2\C(=O)CN(C(C)C)C2=O)cc1`, the inhibition at 10 µg/mL in assay [1] stood at 77%.

For `C=CCOc1ccc(/C(O)=C2\C(=O)C(C)N(C(C)C)C2=O)c(OC)c1` (configuration not stated), the inhibition at 10 µg/mL in assay [1] was 44%.

Regarding `CCOc1ccc(/C(O)=C2\C(=O)CN(C3CC3)C2=O)cc1`, the inhibition at 10 µg/mL in assay [1] came to 78%.

For `CCCc1ccc(/C(O)=C2\C(=O)CN(C(C)C)C2=O)cc1`, the inhibition at 10 µg/mL in assay [1] amounted to 27%.

As for `Cc1ccccc1/C(O)=C1\C(=O)CN(C(C)(C)C)C1=O`, the inhibition at 10 µg/mL in [1] was 64%.

In the case of `CCCCCc1ccc(/C(O)=C2\C(=O)CN(C3CC3)C2=O)cc1`, the inhibition at 10 µg/mL in assay [1] stood at 5%.

Consider `COc1ccccc1/C(O)=C1\C(=O)CN(C(C)C)C1=O`, for which, in assay [1], the inhibition at 10 µg/mL was 77%. The inhibition at 93.75 g/ha in assay [2] (Echinochloa crus-galli, pre-emergence) turned out to be 0%. The inhibition at 187.5 g/ha in assay [3] turned out to be 0%. For the same compound, the inhibition at 750 g/ha in [4] was 73%. Moreover, the inhibition at 375 g/ha in assay [5] stood at 28%.

For the compound `CCCCCc1ccc(/C(O)=C2\C(=O)CN(C)C2=O)cc1`, the inhibition at 10 µg/mL in assay [1] is 16%.

With `Cc1ccc(/C(O)=C2\C(=O)CN(C(C)(C)C)C2=O)cc1`, in [1], the inhibition at 10 µg/mL worked out at 36%.

Turning to `C=CCOc1ccc(/C(O)=C2\C(=O)CN(C(C)C)C2=O)c(OC)c1`, the inhibition at 10 µg/mL in assay [1] was determined as 77%.

`CC(C)N1CC(=O)/C(=C(/O)c2ccccc2Cl)C1=O`: the inhibition at 10 µg/mL in assay [1] was found to be 51%.

`CCOc1ccc(/C([O-])=C2\C(=O)CN(C(C)C)C2=O)cc1.CCOc1ccc(/C([O-])=C2\C(=O)CN(C(C)C)C2=O)cc1.[Zn+2]`: the “inhibition (INH)” value in assay [6] was found to be 100%; in assay [2], 57%. Further, the inhibition at 750 g/ha in assay [7] and in assay [4] (setting [10]) was 100% in each case. The inhibition at 187.5 g/ha in assay [3] (setting [10]) is 96%; in assay [8], 64%. Besides, the inhibition at 375 g/ha in assay [5] (setting [10]) is 100%. In addition, the inhibition at 93.75 g/ha in assay [9] came to 8%.

In the case of `COc1ccc(/C([O-])=C2\C(=O)CN(C(C)C)C2=O)c(OC)c1.COc1ccc(/C([O-])=C2\C(=O)CN(C(C)C)C2=O)c(OC)c1.[Zn+2]`, the inhibition at 375 g/ha came out at 100% in assay [6] (Digitaria sanguinalis, pre-emergence, tested as the Zn salt or complex) and 100% in [5] (setting [10]). In addition, the inhibition at 750 g/ha in assay [7] and in [4] (setting [10]) was 100% each time. Further, the “inhibition (INH)” value in [2] worked out at 72%; in assay [3], 85%. Further, the inhibition at 187.5 g/ha in assay [8] is 82%. Further, the inhibition at 93.75 g/ha in [9] came to 15%.

As to `CC(C)c1ccc(/C(O)=C2\C(=O)CN(C(C)(C)C)C2=O)cc1`, the inhibition at 10 µg/mL in assay [1] was 10%.

Regarding `COc1ccc(/C(O)=C2\C(=O)C(C)N(C(C)C)C2=O)cc1` (configuration not stated), the inhibition at 10 µg/mL in assay [1] was determined as 4%.

In the case of `CCC(C)N1CC(=O)/C(=C(/O)c2ccc(OC(C)C)cc2)C1=O` (configuration not stated), the inhibition at 10 µg/mL in assay [1] is 46%.

Regarding `CC(C)Oc1ccc(/C(O)=C2\C(=O)CN(C(C)C)C2=O)cc1`, the inhibition at 10 µg/mL in assay [1] is 79%.

Regarding `Cc1cccc(/C(O)=C2\C(=O)CN(C(C)(C)C)C2=O)c1`, the inhibition at 10 µg/mL in assay [1] was 5%.

Take `CC(C)(C)c1ccc(/C(O)=C2\C(=O)CN(C(C)(C)C)C2=O)cc1`: in [1], the inhibition at 10 µg/mL worked out at 4%.

On to `COc1ccc(/C(O)=C2\C(=O)CN(C3CC3)C2=O)c(OC)c1`, for which, in [1], the inhibition at 10 µg/mL turned out to be 78%.

Regarding `CCOc1ccc(/C(O)=C2\C(=O)CN(C(C)C)C2=O)c(OC)c1`, in assay [1], the inhibition at 10 µg/mL stood at 69%.

In the case of `Cc1ccc(/C(O)=C2\C(=O)CN(Cc3ccccc3)C2=O)cc1`, the inhibition at 10 µg/mL in [1] was 8%.

For `COc1ccc(C(=O)C2=C(O)N(C(C)C)CCC2=O)cc1`, the inhibition at 10 µg/mL in [1] came to 0%.

Usually inhibition stands for the percentage by which the read-out fell short of the control.
